Laboratory results taken from ChEMBL document CHEMBL4354833, “Kinetic Target-Guided Synthesis: Reaching the Age of Maturity” (J Med Chem, 2020).
One block for each compound: values may come before it.

Legend:
[1] = Inhibition of Enterovirus A71 3c protease
[2] = target: T1, Signal transducer and activator of transcription 5B (Homo sapiens, UniProt P51692); assay: Binding affinity to MBP-tagged recombinant STAT5b-SH2 domain (unknown origin) using carboxyfluoresceine-labeled phosphotyrosine octapeptide incubated for 12 hrs by fluorescence polarization assay
T1 sequence (P51692 whole entry): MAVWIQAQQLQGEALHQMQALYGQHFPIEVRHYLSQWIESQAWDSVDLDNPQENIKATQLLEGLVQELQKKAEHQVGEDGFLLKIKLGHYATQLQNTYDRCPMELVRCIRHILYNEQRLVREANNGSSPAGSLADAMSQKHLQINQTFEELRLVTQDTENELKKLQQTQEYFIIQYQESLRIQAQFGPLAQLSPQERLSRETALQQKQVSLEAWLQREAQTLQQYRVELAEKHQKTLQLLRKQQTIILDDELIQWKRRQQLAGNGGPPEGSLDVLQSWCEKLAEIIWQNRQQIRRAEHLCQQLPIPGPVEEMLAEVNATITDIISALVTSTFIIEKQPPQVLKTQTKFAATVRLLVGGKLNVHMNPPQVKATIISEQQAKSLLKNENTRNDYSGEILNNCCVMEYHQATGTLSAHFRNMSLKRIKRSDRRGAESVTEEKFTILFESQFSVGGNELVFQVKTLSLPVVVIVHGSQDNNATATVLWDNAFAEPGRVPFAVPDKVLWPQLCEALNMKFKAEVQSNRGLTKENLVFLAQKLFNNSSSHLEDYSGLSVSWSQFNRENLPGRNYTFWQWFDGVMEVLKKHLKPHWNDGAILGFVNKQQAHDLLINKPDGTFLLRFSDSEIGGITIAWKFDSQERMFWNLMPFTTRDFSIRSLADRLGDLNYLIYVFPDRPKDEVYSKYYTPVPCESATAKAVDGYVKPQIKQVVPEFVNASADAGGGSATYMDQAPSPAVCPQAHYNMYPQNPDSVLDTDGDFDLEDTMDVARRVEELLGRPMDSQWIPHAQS

[3] = target: T2, Signal transducer and activator of transcription 5B (Mus musculus) (UniProt P42232); assay: Inhibition of STAT5b in mouse BaF3/FLT3-ITD cells incubated for 6 hrs by CETSA-ITDRF assay; assay type: cell-based
T2 sequence (whole entry): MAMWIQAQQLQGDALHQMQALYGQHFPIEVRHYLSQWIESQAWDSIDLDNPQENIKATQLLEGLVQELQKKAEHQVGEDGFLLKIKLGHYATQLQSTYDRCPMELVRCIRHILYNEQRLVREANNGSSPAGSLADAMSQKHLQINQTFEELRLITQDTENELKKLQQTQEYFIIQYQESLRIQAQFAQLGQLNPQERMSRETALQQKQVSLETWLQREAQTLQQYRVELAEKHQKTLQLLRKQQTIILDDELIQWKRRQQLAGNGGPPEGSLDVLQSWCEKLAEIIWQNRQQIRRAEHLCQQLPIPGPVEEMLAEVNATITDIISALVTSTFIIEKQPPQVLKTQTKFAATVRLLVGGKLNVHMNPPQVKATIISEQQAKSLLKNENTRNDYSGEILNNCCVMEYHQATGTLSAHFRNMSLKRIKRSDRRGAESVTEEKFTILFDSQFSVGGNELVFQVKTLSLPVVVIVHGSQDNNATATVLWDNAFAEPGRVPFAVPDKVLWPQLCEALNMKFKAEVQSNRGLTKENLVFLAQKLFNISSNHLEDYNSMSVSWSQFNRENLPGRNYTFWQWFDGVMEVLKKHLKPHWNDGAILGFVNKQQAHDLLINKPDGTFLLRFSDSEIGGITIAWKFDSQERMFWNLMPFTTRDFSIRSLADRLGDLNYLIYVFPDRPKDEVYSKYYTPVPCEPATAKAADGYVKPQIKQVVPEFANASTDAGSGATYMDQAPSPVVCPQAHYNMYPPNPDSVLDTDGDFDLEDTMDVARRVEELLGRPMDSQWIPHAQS

[4] = target: T3, Signal transducer and activator of transcription 5B (Homo sapiens) (UniProt P51692); assay: Binding affinity to MBP-tagged recombinant STAT5b-SH2 domain (unknown origin) assessed as change in melting temperature by CETSA method
T3 sequence (whole entry): T1 sequence (P51692 whole entry)

[5] = target: T2, Signal transducer and activator of transcription 5B (Mus musculus); assay: Inhibition of STAT5b phosphorylation in mouse BaF3/FLT3-ITD cells at 25 uM after 6 hrs by Western blot analysis relative to control; assay type: cell-based
[6] = Antitumor activity against mouse BaF3/FLT3-ITD cells implanted in NSG mouse assessed as induction of tumor growth regression at 200 mg/kg, sc QD for 14 days relative to control; assay type: functional
[7] = target: T4, Bifunctional ligase/repressor BirA (Staphylococcus aureus, UniProt A0A0E7NXW5); assay: Binding affinity to Staphylococcus aureus biotin protein ligase
T4 sequence (A0A0E7NXW5 whole entry): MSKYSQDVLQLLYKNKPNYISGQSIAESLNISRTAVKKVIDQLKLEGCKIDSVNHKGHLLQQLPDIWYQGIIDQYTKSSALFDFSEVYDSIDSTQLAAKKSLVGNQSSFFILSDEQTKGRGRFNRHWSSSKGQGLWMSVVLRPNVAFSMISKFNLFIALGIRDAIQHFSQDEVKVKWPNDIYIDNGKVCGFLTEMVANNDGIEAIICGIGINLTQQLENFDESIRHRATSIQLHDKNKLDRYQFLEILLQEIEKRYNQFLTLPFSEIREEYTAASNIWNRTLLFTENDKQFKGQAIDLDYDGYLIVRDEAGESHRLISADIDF

[8] = target: Luciferin 4-monooxygenase (Photinus pyralis, UniProt P08659); assay: Inhibition of Photinus pyralis luciferase using ATP and D-luciferin in presence of Coenzyme A and DL-cysteine by luminescence based assay
Chain of Luciferin 4-monooxygenase (P08659 whole entry): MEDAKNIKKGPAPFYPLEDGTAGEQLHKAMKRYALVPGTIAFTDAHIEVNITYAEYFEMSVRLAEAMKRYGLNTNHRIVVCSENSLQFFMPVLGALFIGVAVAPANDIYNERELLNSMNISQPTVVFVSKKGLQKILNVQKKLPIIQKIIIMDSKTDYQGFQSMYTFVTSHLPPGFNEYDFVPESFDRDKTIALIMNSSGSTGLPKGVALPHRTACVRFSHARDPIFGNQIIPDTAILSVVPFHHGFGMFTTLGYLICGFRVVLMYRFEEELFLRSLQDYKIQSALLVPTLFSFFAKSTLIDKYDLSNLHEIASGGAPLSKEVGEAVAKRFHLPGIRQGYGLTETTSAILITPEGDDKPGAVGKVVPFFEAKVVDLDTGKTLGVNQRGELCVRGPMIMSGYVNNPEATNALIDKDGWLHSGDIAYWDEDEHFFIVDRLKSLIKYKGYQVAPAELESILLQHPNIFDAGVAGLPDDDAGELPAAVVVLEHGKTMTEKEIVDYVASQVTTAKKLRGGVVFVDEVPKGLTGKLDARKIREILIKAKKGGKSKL

Rattus norvegicus = organism: Rattus norvegicus; assay: animal or person; conditions: 3 h
Description: Antiinflammatory activity in rat model of carrageenan-induced paw edema model after 3 hrs

IC50 [1]: 16.4 µM
Compound: CCOC(=O)/C=C/[C@H](C[C@@H]1CCCNC1=O)NC(=O)[C@H](Cc1ccccc1)NC(=O)C=O

Ki [2]: 420 µM
Compound: Nc1nonc1C(=O)O

Ki [2]: > 5000 µM
Compound: O=C(O)c1nonc1NCn1cncn1

IC50 [1]: 0.32 µM
Compound: Cc1cc(C(=O)N[C@@H](Cc2ccc(F)cc2)C(=O)N[C@H](C=O)C[C@@H]2CCCNC2=O)no1

Ki [2]: > 5000 µM
Compound: O=C(O)c1nonc1NCn1cccn1

Occ50 [3]: 28 µM | IC50 [2]: 1.4 µM | ΔTm [4]: 8 °C
Compound: O=C(O)c1nonc1NCn1cnnn1

Ki [2]: > 5000 µM
Compound: O=C(O)c1nonc1NCn1nnc2ccccc21

inhibition [5]: > 50% | IC50 [2]: 2.9 µM
Compound: O=C(O)c1nonc1NCn1nnnc1Cc1ccccc1
Activity [6]: 28%

Ki [2]: > 5000 µM
Compound: O=C(O)c1nonc1NCn1nnnc1-c1cccc(C(F)(F)F)c1

Ki [7]: 1.4 µM
Compound: O=C1N[C@H]2[C@H](CS[C@H]2CCCCc2cn(CCCNc3ccc([N+](=O)[O-])c4nonc34)nn2)N1

IC50 [8]: 0.01 µM
Compound: Nc1ncnc2c1ncn2[C@H]1O[C@@H](COP(=O)(O)OC(=O)c2cccc(-c3noc(-c4ccccc4F)n3)c2)[C@H](O)[C@@H]1O

Compound: Cc1cc(-n2cc(-c3ccc(F)cc3)nn2)n(-c2ccc(S(C)(=O)=O)cc2)n1
ED50 (Rattus norvegicus): 0.44 mg/kg

Ki [2]: > 5000 µM
Compound: COC(=O)c1nonc1NCn1nnnc1-c1cccc(OC(F)(F)F)c1

Ki [2]: > 5000 µM
Compound: O=C(O)c1nonc1NCn1nnnc1-c1ccccc1

Ki [2]: > 5000 µM
Compound: O=C(O)c1nonc1NCn1ccnn1
